Data published in PubChem BioAssay (NCI).
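Exposure lasted 48 hours, with cells grown in 96-well plates and compounds tested at five concentrations. GI50: concentration for 50% inhibition of growth. TGI: concentration producing complete growth inhibition.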

Legend:
Assay in all cases: NCI anticancer screen, dose series, 48 h
[1] = system: 786-0 renal
[2] = system: A498 renal
[3] = system: A549 NSCLC
[4] = system: ACHN renal
[5] = system: BT-549 breast
[6] = system: CAKI-1 renal
[7] = system: CCRF-CEM leukemia
[8] = system: COLO 205 colon
[9] = system: DU-145 prostate
[10] = system: EKVX NSCLC
[11] = system: HCC-2998 colon
[12] = system: HCT-116 colon
[13] = system: HCT-15 colon
[14] = system: HL-60(TB) leukemia
[15] = system: HOP-62 NSCLC
[16] = system: HOP-92 NSCLC
[17] = system: HS 578T breast
[18] = system: HT29 colon
[19] = system: IGROV1 ovarian
[20] = system: K-562 leukemia
[21] = system: KM12 colon
[22] = system: LOX IMVI melanoma
[23] = system: M14 melanoma
[24] = system: MCF7 breast
[25] = system: MDA-MB-231 breast
[26] = system: MDA-MB-435
[27] = system: MOLT-4 leukemia
[28] = system: NCI-H226 lung
[29] = system: NCI-H23 lung
[30] = system: NCI-H460 lung
[31] = system: NCI-H522 lung
[32] = system: NCI/ADR-RES ovarian
[33] = system: OVCAR-3 ovarian
[34] = system: OVCAR-4 ovarian
[35] = system: OVCAR-5 ovarian
[36] = system: OVCAR-8 ovarian
[37] = system: PC-3 prostate
[38] = system: RPMI-8226 leukemia
[39] = system: RXF 393 renal
[40] = system: SF-268 CNS
[41] = system: SF-295 CNS
[42] = system: SF-539 CNS
[43] = system: SK-MEL-2 melanoma
[44] = system: SK-MEL-28 melanoma
[45] = system: SK-MEL-5 melanoma
[46] = system: SK-OV-3 ovarian
[47] = system: SN12C renal
[48] = system: SNB-19 CNS
[49] = system: SNB-75 CNS
[50] = system: SR leukemia
[51] = system: SW-620 colon
[52] = system: T-47D breast
[53] = system: TK-10 renal
[54] = system: U251 CNS
[55] = system: UACC-257 melanoma
[56] = system: UACC-62 melanoma
[57] = system: UO-31 renal

Molecule `CC(=O)O[C@H]1C(=O)[C@@]2(C)[C@H]([C@H](OC(=O)c3ccccc3)[C@]3(O)C[C@H](OC(=O)[C@H](OC(=O)OC[C@@H]4COC(C)(C)O4)[C@@H](NC(=O)c4ccccc4)c4ccccc4)C(C)=C1C3(C)C)[C@]1(OC(C)=O)CO[C@@H]1C[C@@H]2O` has a GI50 [1] of 0.327 µM, a TGI [1] of over 33.3 µM and a GI50 [2] of 0.0799 µM. For the same molecule, the TGI [2] was 0.758 µM, the GI50 [3] was 0.0488 µM and the TGI [3] was over 33.3 µM. The GI50 [4] was 1.04 µM, the TGI [4] was over 33.3 µM and the GI50 [5] was 0.12 µM. For the same molecule, the TGI [5] was over 33.3 µM, the GI50 [6] was 0.182 µM and the TGI [6] was over 33.3 µM. The GI50 [7] was 0.0402 µM, the TGI [7] was over 33.3 µM and the GI50 [8] was 0.0292 µM. The TGI [8] was over 33.3 µM, the GI50 [9] was 0.0424 µM and the TGI [9] was over 33.3 µM. The GI50 [10] was 0.19 µM, the TGI [10] was over 33.3 µM and the GI50 [11] was 0.0969 µM. The TGI [11] was over 33.3 µM, the GI50 [12] was 0.0112 µM and the TGI [12] was over 33.3 µM. For the same molecule, the GI50 [13] was 0.552 µM, the TGI [13] was over 33.3 µM and the GI50 [14] was 0.0241 µM. It also gave a TGI [14] of over 33.3 µM, a GI50 [15] of 0.119 µM and a TGI [15] of over 33.3 µM. It also gave a GI50 [16] of 0.0532 µM, a TGI [16] of over 33.3 µM and a GI50 [17] of 0.0256 µM. It also gave a TGI [17] of 1.16 µM, a GI50 [18] of 0.0104 µM and a TGI [18] of over 33.3 µM. It also gave a GI50 [19] of 0.062 µM, a TGI [19] of over 33.3 µM and a GI50 [20] of 0.0176 µM. It also gave a TGI [20] of over 33.3 µM, a GI50 [21] of 0.0196 µM and a TGI [21] of over 33.3 µM. The GI50 [22] was 0.0188 µM, the TGI [22] was over 33.3 µM and the GI50 [23] was 0.0268 µM. It also gave a TGI [23] of 0.233 µM, a GI50 [24] of 0.00971 µM and a TGI [24] of over 33.3 µM. For the same molecule, the GI50 [25] was 0.143 µM, the TGI [25] was over 7.26 µM and the GI50 [26] was 0.00481 µM. It also gave a TGI [26] of 0.0237 µM, a GI50 [27] of 0.0571 µM and a TGI [27] of over 33.3 µM. It also gave a GI50 [28] of 0.506 µM, a TGI [28] of over 33.3 µM and a GI50 [29] of 0.0726 µM. It also gave a TGI [29] of over 33.3 µM, a GI50 [30] of 0.00774 µM and a TGI [30] of over 33.3 µM. It also gave a GI50 [31] of 0.0375 µM, a TGI [31] of over 33.3 µM and a GI50 [32] of over 33.3 µM. For the same molecule, the TGI [32] was over 33.3 µM, the GI50 [33] was 0.0183 µM and the GI50 [34] was over 33.3 µM. For the same molecule, the TGI [34] was over 33.3 µM, the GI50 [35] was 0.0603 µM and the TGI [35] was over 33.3 µM. For the same molecule, the GI50 [36] was 0.0857 µM, the TGI [36] was over 33.3 µM and the GI50 [37] was 0.0451 µM. For the same molecule, the TGI [37] was over 33.3 µM, the GI50 [38] was 0.00935 µM and the TGI [38] was over 33.3 µM. The GI50 [39] was 0.0454 µM, the TGI [39] was 0.279 µM and the GI50 [40] was 0.251 µM. The TGI [40] was over 33.3 µM, the GI50 [41] was 0.0598 µM and the TGI [41] was 0.574 µM. For the same molecule, the GI50 [42] was 0.0715 µM, the TGI [42] was 2.21 µM and the GI50 [43] was 0.175 µM. For the same molecule, the TGI [43] was over 33.3 µM, the GI50 [44] was over 33.3 µM and the TGI [44] was over 33.3 µM. It also gave a GI50 [45] of 0.147 µM, a TGI [45] of over 33.3 µM and a GI50 [46] of 1.02 µM. It also gave a TGI [46] of over 33.3 µM, a GI50 [47] of 0.06 µM and a TGI [47] of over 33.3 µM. For the same molecule, the GI50 [48] was 0.0923 µM, the TGI [48] was over 33.3 µM and the GI50 [49] was 0.00411 µM. The TGI [49] was 0.137 µM, the GI50 [50] was 0.0312 µM and the TGI [50] was over 33.3 µM. The GI50 [51] was 0.0213 µM, the TGI [51] was over 33.3 µM and the GI50 [52] was 0.0631 µM. It also gave a TGI [52] of over 33.3 µM, a GI50 [53] of 0.656 µM and a TGI [53] of over 33.3 µM. It also gave a GI50 [54] of 0.0409 µM, a TGI [54] of over 33.3 µM and a GI50 [55] of over 7.38 µM. For the same molecule, the TGI [55] was over 33.3 µM, the GI50 [56] was 0.0587 µM and the TGI [56] was over 33.3 µM. The GI50 [57] was 1.79 µM and the TGI [57] was over 33.3 µM.

`Cc1nc2ccccn2c1NC(=O)NNC(=S)Nc1ccc(Cl)cc1` was tested, and the GI50 [1] was over 100 µM, the TGI [1] was over 100 µM and the GI50 [2] was over 100 µM. It also gave a TGI [2] of over 100 µM, a GI50 [3] of over 100 µM and a TGI [3] of over 100 µM. The GI50 [4] was over 100 µM, the TGI [4] was over 100 µM and the GI50 [5] was over 100 µM. It also gave a TGI [5] of over 100 µM, a GI50 [6] of over 100 µM and a TGI [6] of over 100 µM. It also gave a GI50 [7] of over 100 µM, a TGI [7] of over 100 µM and a GI50 [8] of over 100 µM. For the same molecule, the TGI [8] was over 100 µM, the GI50 [9] was over 100 µM and the TGI [9] was over 100 µM. For the same molecule, the GI50 [10] was over 100 µM, the TGI [10] was over 100 µM and the GI50 [11] was over 100 µM. The TGI [11] was over 100 µM, the GI50 [12] was over 100 µM and the TGI [12] was over 100 µM. The GI50 [13] was over 100 µM, the TGI [13] was over 100 µM and the GI50 [14] was over 100 µM. The TGI [14] was over 100 µM, the GI50 [15] was over 100 µM and the TGI [15] was over 100 µM. It also gave a GI50 [16] of over 100 µM, a TGI [16] of over 100 µM and a GI50 [17] of over 100 µM. It also gave a TGI [17] of over 100 µM, a GI50 [18] of over 100 µM and a TGI [18] of over 100 µM. It also gave a GI50 [19] of over 100 µM, a TGI [19] of over 100 µM and a GI50 [20] of over 100 µM. The TGI [20] was over 100 µM, the GI50 [21] was over 100 µM and the TGI [21] was over 100 µM. The GI50 [22] was over 100 µM, the TGI [22] was over 100 µM and the GI50 [23] was over 100 µM. The TGI [23] was over 100 µM, the GI50 [24] was over 100 µM and the TGI [24] was over 100 µM. It also gave a GI50 [25] of 67.8 µM, a TGI [25] of over 100 µM and a GI50 [26] of over 100 µM. It also gave a TGI [26] of over 100 µM, a GI50 [27] of over 100 µM and a TGI [27] of over 100 µM. For the same molecule, the GI50 [28] was over 100 µM, the TGI [28] was over 100 µM and the GI50 [30] was over 100 µM. The TGI [30] was over 100 µM, the GI50 [31] was over 100 µM and the TGI [31] was over 100 µM. For the same molecule, the GI50 [32] was over 100 µM, the TGI [32] was over 100 µM and the GI50 [33] was over 100 µM. The TGI [33] was over 100 µM, the GI50 [34] was over 100 µM and the TGI [34] was over 100 µM. For the same molecule, the GI50 [35] was over 100 µM, the TGI [35] was over 100 µM and the GI50 [36] was over 100 µM. The TGI [36] was over 100 µM, the GI50 [37] was over 100 µM and the TGI [37] was over 100 µM. For the same molecule, the GI50 [38] was over 100 µM, the TGI [38] was over 100 µM and the GI50 [39] was over 100 µM. For the same molecule, the TGI [39] was over 100 µM, the GI50 [40] was over 100 µM and the TGI [40] was over 100 µM. The GI50 [41] was over 100 µM, the TGI [41] was over 100 µM and the GI50 [42] was over 100 µM. The TGI [42] was over 100 µM, the GI50 [43] was over 100 µM and the TGI [43] was over 100 µM. It also gave a GI50 [44] of over 100 µM, a TGI [44] of over 100 µM and a GI50 [45] of over 100 µM. For the same molecule, the TGI [45] was over 100 µM, the GI50 [46] was over 100 µM and the TGI [46] was over 100 µM. For the same molecule, the GI50 [47] was over 100 µM, the TGI [47] was over 100 µM and the GI50 [48] was over 100 µM. It also gave a TGI [48] of over 100 µM, a GI50 [49] of over 100 µM and a TGI [49] of over 100 µM. The GI50 [50] was 95.7 µM, the TGI [50] was over 100 µM and the GI50 [51] was over 100 µM. It also gave a TGI [51] of over 100 µM, a GI50 [52] of over 100 µM and a TGI [52] of over 100 µM. For the same molecule, the GI50 [53] was over 100 µM, the TGI [53] was over 100 µM and the GI50 [54] was over 100 µM. The TGI [54] was over 100 µM, the GI50 [55] was over 100 µM and the TGI [55] was over 100 µM. The GI50 [56] was over 100 µM, the TGI [56] was over 100 µM and the GI50 [57] was over 100 µM. The TGI [57] was over 100 µM.
